According to PubChem BioAssay AID1745844 (Carcinogenic Potency Database (CPDB), 2022):
“And” between values parts separate entries of the source, which are not always exact repeats. Equal values may be shown once. The source made the active and inactive calls. How the calls were made is not given here.

Tested on: rodent lifetime carcinogenesis bioassay, tumor incidence TD50
Experiment: chronic cancer bioassays in animals – CPDB, compiled studies (AID 1745844)
[1] = mouse, strain B6AKF1, females, oral dosing, site: any site (literature study), lesion: several types, types named in the paper, dosed 76 weeks, study length 76 weeks
[2] = mouse, strain B6AKF1, females, oral dosing, site: lung, lesion: adenoma, dosed 76 weeks, study length 76 weeks
[3] = mouse, strain B6AKF1, males, oral dosing, site: lung, lesion: adenoma, dosed 76 weeks, study length 76 weeks
[4] = mouse, strain B6C3F1, males, oral dosing, site: any site (literature study), lesion: several types, types named in the paper, dosed 76 weeks, study length 76 weeks

COc1ccc([C@@H]2CC(=O)c3c(O)cc(O[C@@H]4O[C@H](CO[C@@H]5O[C@@H](C)[C@H](O)[C@@H](O)[C@H]5O)[C@@H](O)[C@H](O)[C@H]4O)cc3O2)cc1OC
carcinogen call (mouse, strain B6C3F1, females, in feed, site: liver, lesion: hemangioma, dosed 96 weeks, study length 104 weeks): negative (inactive) | TD50 (mouse, strain B6C3F1, females, in feed, site: liver, lesion: hemangiosarcoma, dosed 96 weeks, study length 104 weeks): 887000 mg/kg/day (inactive) | TD50 (mouse, strain B6C3F1, females, in feed, site: liver, lesion: hepatocellular carcinoma, dosed 96 weeks, study length 104 weeks): 194000 mg/kg/day (inactive) | TD50 (mouse, strain B6C3F1, females, in feed, site: liver, lesion: hyperplastic nodule, dosed 96 weeks, study length 104 weeks): 379000 mg/kg/day (inactive) | carcinogen call (mouse, strain B6C3F1, females, in feed, site: lung, lesion: adenoma, dosed 96 weeks, study length 104 weeks): negative (inactive) | carcinogen call (mouse, strain B6C3F1, males, in feed, site: liver, lesion: hemangioma, dosed 96 weeks, study length 104 weeks): negative (inactive) | TD50 (mouse, strain B6C3F1, males, in feed, site: liver, lesion: hepatocellular carcinoma, dosed 96 weeks, study length 104 weeks): 146000 mg/kg/day (inactive) | TD50 (mouse, strain B6C3F1, males, in feed, site: liver, lesion: hyperplastic nodule, dosed 96 weeks, study length 104 weeks): 416000 mg/kg/day (inactive) | carcinogen call (mouse, strain B6C3F1, males, in feed, site: lung, lesion: adenocarcinoma, dosed 96 weeks, study length 104 weeks): negative (inactive) | carcinogen call (mouse, strain B6C3F1, males, in feed, site: lung, lesion: adenoma, dosed 96 weeks, study length 104 weeks): negative (inactive)

CC1=C(CC(=O)O)c2cc(F)ccc2/C1=C\c1ccc(S(C)(=O)=O)cc1
carcinogen call (rat, strain Fischer 344, males, in feed, site: colon, lesion: one or several types, types not named, dosed 53 weeks, study length 53 weeks): negative (inactive)

CCc1ccccc1
TD50 (mouse, strain B6C3F1, females, inhaled, site: Harderian gland, lesion: adenoma, dosed 103 weeks, study length 104 weeks): 9070 mg/kg/day | TD50 (mouse, strain B6C3F1, females, inhaled, site: any site (literature study), lesion: several types, types named in the paper, dosed 103 weeks, study length 104 weeks): 4070 mg/kg/day | TD50 (mouse, strain B6C3F1, females, inhaled, site: liver, lesion: hepatocellular adenoma + hepatoblastoma + hepatocellular carcinoma, dosed 103 weeks, study length 104 weeks): 1880 mg/kg/day | TD50 (mouse, strain B6C3F1, females, inhaled, site: liver, lesion: hepatocellular adenoma + hepatocellular carcinoma, dosed 103 weeks, study length 104 weeks): 1880 mg/kg/day | TD50 (mouse, strain B6C3F1, females, inhaled, site: liver, lesion: hepatocellular adenoma, dosed 103 weeks, study length 104 weeks): 2450 mg/kg/day | TD50 (mouse, strain B6C3F1, females, inhaled, site: lung, lesion: alveolar/bronchiolar adenoma + alveolar/bronchiolar carcinoma, dosed 103 weeks, study length 104 weeks): 7950 mg/kg/day | TD50 (mouse, strain B6C3F1, males, inhaled, site: any site (literature study), lesion: several types, types named in the paper, dosed 103 weeks, study length 104 weeks): 2010 mg/kg/day | TD50 (mouse, strain B6C3F1, males, inhaled, site: liver, lesion: hepatocellular adenoma + hepatoblastoma + hepatocellular carcinoma, dosed 103 weeks, study length 104 weeks): 9310 mg/kg/day | TD50 (mouse, strain B6C3F1, males, inhaled, site: lung, lesion: alveolar/bronchiolar adenoma + alveolar/bronchiolar carcinoma, dosed 103 weeks, study length 104 weeks): 1400 mg/kg/day | TD50 (mouse, strain B6C3F1, males, inhaled, site: lung, lesion: alveolar/bronchiolar adenoma, dosed 103 weeks, study length 104 weeks): 1680 mg/kg/day | TD50 (rat, strain Fischer 344, males, inhaled, site: adrenal medulla, lesion: pheochromocytoma benign, bilateral + pheochromocytoma, benign, dosed 104 weeks, study length 104 weeks): 125 mg/kg/day | TD50 (rat, strain Fischer 344, males, inhaled, site: adrenal medulla, lesion: pheochromocytoma benign, bilateral + pheochromocytoma, malignant + pheochromocytoma, benign, dosed 104 weeks, study length 104 weeks): 106 mg/kg/day | TD50 (rat, strain Fischer 344, males, inhaled, site: any site (literature study), lesion: several types, types named in the paper, dosed 104 weeks, study length 104 weeks): 53 mg/kg/day | TD50 (rat, strain Fischer 344, males, inhaled, site: kidney + testis, lesion: tubule adenoma + tubule carcinoma + interstitial-cell adenoma, bilateral + interstitial-cell adenoma, dosed 104 weeks, study length 104 weeks): 24.6 mg/kg/day | TD50 (rat, strain Fischer 344, males, inhaled, site: kidney, lesion: tubule adenoma + tubule carcinoma, dosed 104 weeks, study length 104 weeks): 147 mg/kg/day and 255 mg/kg/day | TD50 (rat, strain Fischer 344, males, inhaled, site: kidney, lesion: tubule adenoma, dosed 104 weeks, study length 104 weeks): 232 mg/kg/day and 280 mg/kg/day | TD50 (rat, strain Fischer 344, males, inhaled, site: testis, lesion: interstitial-cell adenoma, bilateral + interstitial-cell adenoma, dosed 104 weeks, study length 104 weeks): 24.8 mg/kg/day | TD50 (rat, strain Fischer 344, males, inhaled, site: testis, lesion: interstitial-cell adenoma, bilateral, dosed 104 weeks, study length 104 weeks): 23.1 mg/kg/day | TD50 (rat, strain Sprague-Dawley, females, by gavage, site: any site (literature study), lesion: malignant tumor, dosed 104 weeks, study length 123 weeks): 1610 mg/kg/day | TD50 (rat, strain Sprague-Dawley, females, by gavage, site: any site (literature study), lesion: malignant tumor, dosed 104 weeks, study length 141 weeks): 1210 mg/kg/day | TD50 (rat, strain Sprague-Dawley, females, by gavage, site: any site (literature study), lesion: several types, types named in the paper, dosed 104 weeks, study length 141 weeks): 635 mg/kg/day | TD50 (rat, strain Sprague-Dawley, females, by gavage, site: head, lesion: carcinoma, dosed 104 weeks, study length 123 weeks): 4170 mg/kg/day | TD50 (rat, strain Sprague-Dawley, females, by gavage, site: nasal cavity, lesion: carcinoma, dosed 104 weeks, study length 123 weeks): 18300 mg/kg/day | TD50 (rat, strain Sprague-Dawley, females, by gavage, site: nasal cavity, lesion: esthesioneuroepithelioma, dosed 104 weeks, study length 123 weeks): 18300 mg/kg/day | TD50 (rat, strain Sprague-Dawley, females, by gavage, site: oral cavity, lesion: carcinoma, dosed 104 weeks, study length 123 weeks): 8890 mg/kg/day | TD50 (rat, strain Sprague-Dawley, males, by gavage, site: any site (literature study), lesion: malignant tumor, dosed 104 weeks, study length 141 weeks): 1980 mg/kg/day | TD50 (rat, strain Sprague-Dawley, males, by gavage, site: any site (literature study), lesion: several types, types named in the paper, dosed 104 weeks, study length 141 weeks): 1160 mg/kg/day | TD50 (rat, strain Sprague-Dawley, males, by gavage, site: ear duct, lesion: carcinoma, dosed 104 weeks, study length 123 weeks): 18300 mg/kg/day | TD50 (rat, strain Sprague-Dawley, males, by gavage, site: head, lesion: carcinoma, dosed 104 weeks, study length 123 weeks): 4350 mg/kg/day | TD50 (rat, strain Sprague-Dawley, males, by gavage, site: nasal cavity, lesion: esthesioneuroepithelioma, dosed 104 weeks, study length 123 weeks): 5990 mg/kg/day | TD50 (rat, strain Sprague-Dawley, males, by gavage, site: oral cavity, lesion: carcinoma, dosed 104 weeks, study length 123 weeks): 18300 mg/kg/day

CCSCC[C@H](N)C(=O)O
carcinogen call (rat, strain Wistar, males, in feed, site: liver, lesion: carcinoma, dosed 34 weeks, study length 52 weeks): positive

CC(=O)OC(OC(C)=O)c1ccc([N+](=O)[O-])o1
carcinogen call (rat, strain Holtzman albino (Sprague-Dawley derived), females, in feed, site: mammary tissue, wider than the gland, lesion: one or several types, types not named, dosed 36 weeks, study length 54 weeks): negative (inactive) | TD50 (rat, strain Holtzman albino (Sprague-Dawley derived), females, in feed, site: mammary tissue, wider than the gland, lesion: one or several types, types not named, dosed 44 weeks, study length 60 weeks): 105 mg/kg/day (inactive)

CCCCCCCCCc1ccc(OCCO)cc1
TD50 (mouse, strain B6C3F1, females, in feed, site: liver, lesion: hepatocellular adenoma, dosed 104 weeks, study length 104 weeks): 8670 mg/kg/day (inactive) | carcinogen call (mouse, strain B6C3F1, females, in feed, site: liver, lesion: hepatocellular carcinoma, dosed 104 weeks, study length 104 weeks): negative (inactive) | carcinogen call (rat, strain F344/DuCrj, females, in feed, site: liver, lesion: hepatocellular adenoma, dosed 104 weeks, study length 104 weeks): negative (inactive) | carcinogen call (rat, strain F344/DuCrj, females, in feed, site: liver, lesion: one or several types, types not named, dosed 52 weeks, study length 52 weeks): negative (inactive)

O=C1N(CCO)CCN1N=Cc1ccc([N+](=O)[O-])o1
TD50 (rat, strain Sprague-Dawley, females, in feed, site: any site (literature study), lesion: several types, types named in the paper, dosed 46 weeks, study length 66 weeks): 18 mg/kg/day | TD50 (rat, strain Sprague-Dawley, females, in feed, site: mammary gland, lesion: adenocarcinoma, dosed 46 weeks, study length 66 weeks): 16.7 mg/kg/day

O=[N+]([O-])c1cc([N+](=O)[O-])c(Cl)c(Cl)c1Cl
TD50 [1]: 52.6 mg/kg/day | TD50 [2]: 108 mg/kg/day | TD50 [3]: 49 mg/kg/day | TD50 [4]: 19.8 mg/kg/day

O=NN1CSCSC1
TD50 (rat, strain Fischer 344, females, by gavage, site: liver, lesion: hepatocellular carcinoma, dosed 47 weeks, study length 110 weeks): 10.5 mg/kg/day (inactive) | TD50 (rat, strain Fischer 344, females, by gavage, site: nasal mucosa, lesion: carcinoma, dosed 47 weeks, study length 110 weeks): 5.11 mg/kg/day

CC(=O)Nc1ccc(OCC(O)CNC(C)C)cc1 (configuration not stated)
carcinogen call (mouse, strain AP Alderly Park, females, several routes, site: liver, lesion: one or several types, types not named, dosed 78 weeks, study length 78 weeks): negative (inactive) | carcinogen call (mouse, strain AP Alderly Park, females, several routes, site: lung, lesion: one or several types, types not named, dosed 78 weeks, study length 78 weeks): negative (inactive) | TD50 (mouse, strain AP Alderly Park, males, several routes, site: liver, lesion: one or several types, types not named, dosed 78 weeks, study length 78 weeks): 24300 mg/kg/day (inactive) | TD50 (mouse, strain AP Alderly Park, males, several routes, site: lung, lesion: one or several types, types not named, dosed 78 weeks, study length 78 weeks): 383 mg/kg/day (inactive) | carcinogen call (rat, strain Alpk:APfSD, females, in feed, site: liver, lesion: one or several types, types not named, dosed 104 weeks, study length 104 weeks): negative (inactive) | carcinogen call (rat, strain Alpk:APfSD, males, in feed, site: liver, lesion: one or several types, types not named, dosed 104 weeks, study length 104 weeks): negative (inactive) | TD50 (rat, strain Alpk:APfSD, males, in feed, site: pituitary gland, lesion: one or several types, types not named, dosed 104 weeks, study length 104 weeks): 23.9 mg/kg/day (inactive) | TD50 (rat, strain Alpk:APfSD, males, in feed, site: testis, lesion: one or several types, types not named, dosed 104 weeks, study length 104 weeks): 194 mg/kg/day (inactive)

ClC1=C(Cl)C2(Cl)C3C(Cl)OC(Cl)C3C1(Cl)C2(Cl)Cl (configuration not stated)
carcinogen call [1]: negative (inactive) | carcinogen call (mouse, strain B6AKF1, females, oral dosing, site: liver, lesion: hepatoma, dosed 76 weeks, study length 76 weeks): negative (inactive) | carcinogen call [2]: negative (inactive) | TD50 (mouse, strain B6AKF1, males, oral dosing, site: any site (literature study), lesion: several types, types named in the paper, dosed 76 weeks, study length 76 weeks): 0.136 mg/kg/day (inactive) | carcinogen call (mouse, strain B6AKF1, males, oral dosing, site: liver, lesion: hepatoma, dosed 76 weeks, study length 76 weeks): negative (inactive) | TD50 [3]: 0.146 mg/kg/day (inactive) | TD50 (mouse, strain B6C3F1, females, oral dosing, site: any site (literature study), lesion: several types, types named in the paper, dosed 76 weeks, study length 76 weeks): 0.277 mg/kg/day (inactive) | carcinogen call (mouse, strain B6C3F1, females, oral dosing, site: liver, lesion: hepatoma, dosed 76 weeks, study length 76 weeks): negative (inactive) | TD50 (mouse, strain B6C3F1, females, oral dosing, site: lung, lesion: adenoma, dosed 76 weeks, study length 76 weeks): 0.571 mg/kg/day (inactive) | TD50 [4]: 0.242 mg/kg/day (inactive) | TD50 (mouse, strain B6C3F1, males, oral dosing, site: liver, lesion: hepatoma, dosed 76 weeks, study length 76 weeks): 0.5 mg/kg/day (inactive) | TD50 (mouse, strain B6C3F1, males, oral dosing, site: lung, lesion: adenoma, dosed 76 weeks, study length 76 weeks): 0.5 mg/kg/day (inactive)
